Data: US20040248877A1, “Polycyclic diazodioxide-based Bcl-2 protein antagonists and use thereof” (priority 2003, published 2004)
Where two headings read alike, the source gives them in different places.

Key:
[1] = test system: HL60, human leukemic cells expressing high Bcl-2 and low Bcl-XL levels; experiment: Acute cytotoxicity (apoptotic activity), Alamar Blue viability; assay type: cell-based
Procedure: (§1) The biological activity of the compounds provided herein were assessed in cellular system by the method similar to the one described by Amundson et al. (Amundson, S. A. et al, Cancer Research 2000, 60, 6101-6110), which is incorporated herein by reference in its entirety. The compounds were tested for acute cytotoxicity (apoptotic activity) using two human cancer cell lines expressing high levels of either Bcl-2 or Bcl-XL. HL60, human leukemic cells expressing high Bcl-2 and low Bcl-XL levels, and A549 human lung cells expressing low Bcl-2 and high Bcl-XL levels, were incubated with the compounds at concentrations between 0.5 and 1000 μg/mL for 4 hours at 37° C., 5% CO2. The number of viable cells were measured by mitochondrial transformation of Alamar Blue to a fluorescent dye. LC50 values for each test compound and controls are provided in the individual examples that follow.
(§2) The compounds provided herein were tested for acute cytoxicity (apoptotic activity) using two human cancer cell lines expressing high levels of either Bcl-2 or Bcl-XL. HL-60 cells expressing high Bcl-2 and low Bcl-XL levels, and A549 human lung cells expressing low Bcl-2 and high Bcl-XL levels (Amundson, S. A. et al. Cancer Research 2000, 60, 6101-6110) were incubated with the compounds at concentrations between […] for 4 hours at 37° C., 5% CO2. The number of viable cells were measured my mitochondrial transformation of Alamar Blue to a fluorescent dye. As negative controls, the compounds were tested against the cell lines with low levels of Bcl-2 expression, viz., MDA-453 cells (Enyedy, I. J. et al. J. Med. Chem. 2001, 44, 4313-4324). LC50 values for each compound and controls were determined.

[2] = test system: A549 human lung cells expressing low Bcl-2 and high Bcl-XL levels; experiment: as above; assay type: cell-based
Procedure: as §1, §2

cell = cell line not specified; cited from earlier work
Bcl-2 and Bcl XL = settings: cited from earlier work
Bcl-XL = Bcl-XL (Homo sapiens, UniProt Q07817); settings: cited from earlier work
[3] = Homo sapiens, HL-60, 4 h, read-out: LC 50 (μM) HL-60
[4] = Homo sapiens, A549, 4 h, read-out: LC 50 (μM) A549
[5] = protein not specified, read-out: IC50 (FP)

Chain of Bcl-XL (Q07817 whole entry, species assumed): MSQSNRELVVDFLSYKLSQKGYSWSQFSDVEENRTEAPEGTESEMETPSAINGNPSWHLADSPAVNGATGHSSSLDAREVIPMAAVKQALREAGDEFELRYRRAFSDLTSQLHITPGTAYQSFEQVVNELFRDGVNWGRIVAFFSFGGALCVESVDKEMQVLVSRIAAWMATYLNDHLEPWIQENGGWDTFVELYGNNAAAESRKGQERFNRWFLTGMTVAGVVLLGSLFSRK

| SMILES | CC50 [1, 3] | CC50 [2, 4] | IC50 (cell) | further results |
| --- | --- | --- | --- | --- |
| [O-]/[N+]1=N/c2ccc(Oc3ccc(C(F)(F)F)cn3)cc2CCc2ccccc21 [compound 19] | > 200 µM | > 200 µM | – | – |
| [O-]/[N+]1=N/c2ccc(F)cc2CCc2cc(F)ccc21 [compound 13] | > 200 µM | > 200 µM | – | – |
| [O-][n+]1nc2ccccc2c2ccccc21 [compound 9] | > 200 µM | > 200 µM | – | – |
| CCOC(=O)OC(C#N)C1C=C(N)Oc2ccc(Br)cc21 (stereo not shown) [Compound 4] | > 200 µM | > 200 µM | 18 µM | IC50 (Bcl-2 and Bcl XL; [5]): 9 µM |
| CCS(=O)(=O)c1ccc2c(c1)CCc1cc(S(=O)(=O)CC)ccc1/[N+]([O-])=N\2 [compound 21] | > 200 µM | > 200 µM | – | – |
| [O-]/[N+]1=N/c2ccc(OC(F)F)cc2CCc2cc(OC(F)F)ccc21 [compound 16] | > 200 µM | > 200 µM | – | – |
| [O-]/[N+]1=N/c2ccc(OCc3ccccc3)cc2CCc2cc(OCc3ccccc3)ccc21 [compound 15] | > 200 µM | > 200 µM | – | – |
| CC(C)C(C(=O)O)C1C(=O)/C(=C/c2ccc(Br)cc2)SC1=S (stereo not shown) [Compound 5] | > 200 µM | > 200 µM | ~90 µM | IC50 (Bcl-2 and Bcl XL; [5]): 2.4 µM |
| O=C(Nc1cc(S(=O)(=O)c2ccc(Cl)cc2)ccc1Cl)c1cc(Cl)cc(I)c1O [Compound 6] | > 200 µM | > 200 µM | ~30 µM | IC50 (Bcl-2 and Bcl XL; [5]): 3.3 µM |
| [O-]/[N+]1=N/c2ccc(Oc3ccc(C(F)(F)F)cn3)cc2CCc2cc(Oc3ccc(C(F)(F)F)cn3)ccc21 [compound 18] | > 200 µM | > 200 µM | – | – |
| Cc1cc2c(C(C)C)c(O)c(O)c(C=O)c2c(O)c1-c1c(C)cc2c(C(C)C)c(O)c(O)c(C=O)c2c1O [Compound 1, Gossypol] | – | – | 1.5 µM | IC50 (Bcl-XL): 0.4 µM |
| [O-][N+]1=[N+]([O-])c2ccc(OC(F)F)cc2CCc2cc(OC(F)F)ccc21 [Example 2, dibenzo[c,g][1,2]diazocine, 2,9-bis(difluoromethoxy)-11,12-dihydro-5,6-dioxide] | – | – | – | CC50 [1]: 18.5 µM; CC50 [2]: 298 µM |
| CC(C)Cc1cc(-c2ccc(-c3ccc(OCC(=O)O)c(CC(C)C)c3)c(Cc3cccc4ccccc34)c2)ccc1CCC(=O)O [Compound 7] | > 200 µM | > 200 µM | – | IC50 (Bcl-2 and Bcl XL; Bcl-2 antagonist designed by molecular modeling, read-out: IC50 value): 0.114 µM |
| [O-][N+]1=[N+]([O-])c2ccc(OCC(F)(F)F)cc2CCc2cc(OCC(F)(F)F)ccc21 [Example 1, dibenzo[c,g][1,2]diazocine, 11,12-dihydro-2,9-bis(2,2,2-trifluoroethoxy)-, 5,6-dioxide] | – | – | – | CC50 ([1]; Homo sapiens, HL-60, 4 hours at 37° C., read-out: LC50 value in HL-60 cell line): 26.1 µM; CC50 ([2]; Homo sapiens, A549, 4 hours at 37° C., read-out: LC50 value in A549 cell line): 80.9 µM |
| CCCC[C@H]1C(=O)O[C@H](C)[C@H](NC(=O)c2cccc(NC=O)c2O)C(=O)O[C@@H](C)[C@@H]1OC(=O)CC(C)C [Compound 2, Antimycin] | – | – | 1.2 µM | IC50 (Bcl-2 and Bcl XL; [5]): 2.5 µM |
